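Following 48 hours of exposure in 96-well plates, responses at five concentrations were used to interpolate endpoints linearly. The concentration for 50% growth inhibition is given as GI50. TGI: total growth inhibition.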
Experiments:
Test in all cases: NCI-60 cell line screen, 48 h
UACC-257 melanoma = tested on: UACC-257 melanoma
HT29 colon = tested on: HT29 colon
CAKI-1 renal = tested on: CAKI-1 renal
COLO 205 colon = tested on: COLO 205 colon
UACC-62 melanoma = tested on: UACC-62 melanoma
RXF 393 renal = tested on: RXF 393 renal
MDA-MB-468 breast = tested on: MDA-MB-468 breast
SN12C renal = tested on: SN12C renal
SK-MEL-2 melanoma = tested on: SK-MEL-2 melanoma
NCI-H226 lung = tested on: NCI-H226 lung
HL-60(TB) leukemia = tested on: HL-60(TB) leukemia
MDA-MB-435 = tested on: MDA-MB-435
PC-3 prostate = tested on: PC-3 prostate
SF-268 CNS = tested on: SF-268 CNS
HCC-2998 colon = tested on: HCC-2998 colon
DU-145 prostate = tested on: DU-145 prostate
HCT-15 colon = tested on: HCT-15 colon
786-0 renal = tested on: 786-0 renal
BT-549 breast = tested on: BT-549 breast
MCF7 breast = tested on: MCF7 breast
HOP-62 NSCLC = tested on: HOP-62 NSCLC
ACHN renal = tested on: ACHN renal
IGROV1 ovarian = tested on: IGROV1 ovarian
LOX IMVI melanoma = tested on: LOX IMVI melanoma
HOP-92 NSCLC = tested on: HOP-92 NSCLC
SK-MEL-5 melanoma = tested on: SK-MEL-5 melanoma
SW-620 colon = tested on: SW-620 colon
U251 CNS = tested on: U251 CNS
SNB-19 CNS = tested on: SNB-19 CNS
SNB-75 CNS = tested on: SNB-75 CNS
SF-539 CNS = tested on: SF-539 CNS
T-47D breast = tested on: T-47D breast
UO-31 renal = tested on: UO-31 renal
A498 renal = tested on: A498 renal
SK-MEL-28 melanoma = tested on: SK-MEL-28 melanoma
SF-295 CNS = tested on: SF-295 CNS
OVCAR-8 ovarian = tested on: OVCAR-8 ovarian
MALME-3M melanoma = tested on: MALME-3M melanoma
KM12 colon = tested on: KM12 colon
NCI-H460 lung = tested on: NCI-H460 lung
EKVX NSCLC = tested on: EKVX NSCLC
HS 578T breast = tested on: HS 578T breast
SK-OV-3 ovarian = tested on: SK-OV-3 ovarian
SR leukemia = tested on: SR leukemia
NCI/ADR-RES ovarian = tested on: NCI/ADR-RES ovarian
A549 NSCLC = tested on: A549 NSCLC
RPMI-8226 leukemia = tested on: RPMI-8226 leukemia
HCT-116 colon = tested on: HCT-116 colon
MDA-MB-231 breast = tested on: MDA-MB-231 breast
OVCAR-5 ovarian = tested on: OVCAR-5 ovarian
NCI-H23 lung = tested on: NCI-H23 lung
MOLT-4 leukemia = tested on: MOLT-4 leukemia
OVCAR-4 ovarian = tested on: OVCAR-4 ovarian
K-562 leukemia = tested on: K-562 leukemia
NCI-H522 lung = tested on: NCI-H522 lung
TK-10 renal = tested on: TK-10 renal
OVCAR-3 ovarian = tested on: OVCAR-3 ovarian
CCRF-CEM leukemia = tested on: CCRF-CEM leukemia
M14 melanoma = tested on: M14 melanoma

## COc1ccc(-c2nnc3c(/C=C/c4ccc(Br)cc4)nc4ccccc4n23)cc1
UACC-257 melanoma
  GI50: 13.1 µM
  TGI: 25.8 µM
HT29 colon
  GI50: 2.56 µM
  TGI: 9.29 µM
CAKI-1 renal
  GI50: 11.3 µM
  TGI: 23.3 µM
COLO 205 colon
  GI50: 4.19 µM
  TGI: 15.1 µM
UACC-62 melanoma
  GI50: 5.61 µM
  TGI: 19.5 µM
RXF 393 renal
  GI50: 1.24 µM
  TGI: 2.53 µM
MDA-MB-468 breast
  GI50: 2.08 µM
  TGI: 8.39 µM
SN12C renal
  GI50: 2.24 µM
  TGI: 8.9 µM
SK-MEL-2 melanoma
  GI50: 10.9 µM
  TGI: 22.8 µM
NCI-H226 lung
  GI50: 1.68 µM
  TGI: 4.5 µM
HL-60(TB) leukemia
  GI50: 3.43 µM
  TGI: 16.8 µM
MDA-MB-435
  GI50: 11.7 µM
  TGI: 23.9 µM
PC-3 prostate
  GI50: 11.4 µM
  TGI: 23.5 µM
SF-268 CNS
  GI50: 14.4 µM
  TGI: 34.7 µM
HCC-2998 colon
  GI50: 12.1 µM
  TGI: 24.5 µM
DU-145 prostate
  GI50: 5.24 µM
  TGI: 17.7 µM
HCT-15 colon
  GI50: 1.47 µM
  TGI: 3.25 µM
786-0 renal
  GI50: 1.54 µM
  TGI: 3.81 µM
BT-549 breast
  GI50: 2.37 µM
  TGI: 15.3 µM
MCF7 breast
  GI50: 2.8 µM
  TGI: 14.9 µM
HOP-62 NSCLC
  GI50: 15.5 µM
  TGI: 32 µM
ACHN renal
  GI50: 2.55 µM
  TGI: 9.06 µM
IGROV1 ovarian
  GI50: 10.7 µM
  TGI: 22.6 µM
LOX IMVI melanoma
  GI50: 0.883 µM
  TGI: 2.11 µM
HOP-92 NSCLC
  GI50: 1.14 µM
  TGI: 7.29 µM
SK-MEL-5 melanoma
  GI50: 10.8 µM
  TGI: 22.7 µM
SW-620 colon
  GI50: 0.728 µM
  TGI: 2.24 µM
U251 CNS
  GI50: 6.97 µM
  TGI: 19.7 µM
SNB-19 CNS
  GI50: 13.7 µM
  TGI: 26.8 µM
SNB-75 CNS
  GI50: 16 µM
  TGI: 34.1 µM
SF-539 CNS
  GI50: 2.45 µM
  TGI: 6.91 µM
T-47D breast
  GI50: 10.5 µM
  TGI: 25.5 µM
UO-31 renal
  GI50: 2.93 µM
  TGI: 16.4 µM
A498 renal
  GI50: 22.8 µM
  TGI: 91.4 µM
SK-MEL-28 melanoma
  GI50: 8.85 µM
  TGI: 21.1 µM
SF-295 CNS
  GI50: 16 µM
  TGI: 33.1 µM
OVCAR-8 ovarian
  GI50: 10.4 µM
  TGI: 22.1 µM
MALME-3M melanoma
  GI50: 1.3 µM
  TGI: 2.72 µM
KM12 colon
  GI50: 12.6 µM
  TGI: 25.1 µM
NCI-H460 lung
  GI50: 11.2 µM
  TGI: 23.2 µM
EKVX NSCLC
  GI50: 12.1 µM
  TGI: 26.1 µM
HS 578T breast
  GI50: 16.7 µM
  TGI: 57 µM
SK-OV-3 ovarian
  GI50: 21.7 µM
  TGI: 64 µM
SR leukemia
  GI50: 1.04 µM
  TGI: 3.94 µM
NCI/ADR-RES ovarian
  GI50: 10.3 µM
  TGI: 25.9 µM
A549 NSCLC
  GI50: 12 µM
  TGI: 24.4 µM
RPMI-8226 leukemia
  GI50: 4.11 µM
  TGI: 18.4 µM
HCT-116 colon
  GI50: 1.47 µM
  TGI: 3.2 µM
MDA-MB-231 breast
  GI50: 4.82 µM
  TGI: 17.5 µM
OVCAR-5 ovarian
  GI50: 3.97 µM
  TGI: 16 µM
NCI-H23 lung
  GI50: 9.39 µM
  TGI: 21.3 µM
MOLT-4 leukemia
  GI50: 2.7 µM
  TGI: 12.1 µM
OVCAR-4 ovarian
  GI50: 3.96 µM
  TGI: 16.4 µM
K-562 leukemia
  GI50: 0.431 µM
  TGI: 13.1 µM
NCI-H522 lung
  GI50: 0.156 µM
  TGI: 0.301 µM
TK-10 renal
  GI50: 13.5 µM
  TGI: 26.3 µM
OVCAR-3 ovarian
  GI50: 3.43 µM
  TGI: 14 µM
CCRF-CEM leukemia
  GI50: 1.39 µM
  TGI: 4.9 µM
M14 melanoma
  GI50: 2.41 µM
  TGI: 10.2 µM

## CS(=O)(=O)Nc1ccc(-c2ccc3c(c2)ncn3-c2ccc(NC(=O)Nc3ccc(Cl)c(C(F)(F)F)c3)cc2)cc1
UACC-257 melanoma
  GI50: 2.43 µM
  TGI: 6.85 µM
HT29 colon
  GI50: 2.95 µM
  TGI: 10.8 µM
CAKI-1 renal
  GI50: 4.73 µM
  TGI: 20.9 µM
COLO 205 colon
  GI50: 2.05 µM
  TGI: 5.15 µM
UACC-62 melanoma
  GI50: 1.91 µM
  TGI: 4.23 µM
RXF 393 renal
  GI50: 1.05 µM
  TGI: 3.83 µM
MDA-MB-468 breast
  GI50: 2.43 µM
  TGI: 7.78 µM
SN12C renal
  GI50: 2.99 µM
  TGI: 11.2 µM
NCI-H226 lung
  GI50: 3.05 µM
  TGI: 11.8 µM
HL-60(TB) leukemia
  GI50: 1.79 µM
  TGI: 4.02 µM
MDA-MB-435
  GI50: 2.97 µM
  TGI: 12.4 µM
PC-3 prostate
  GI50: 2.81 µM
  TGI: 10.3 µM
SF-268 CNS
  GI50: 3.42 µM
  TGI: 15.4 µM
HCC-2998 colon
  GI50: 4.32 µM
  TGI: 14.7 µM
DU-145 prostate
  GI50: 3.84 µM
  TGI: 17.1 µM
HCT-15 colon
  GI50: 2.73 µM
  TGI: 10.1 µM
786-0 renal
  GI50: 1.87 µM
  TGI: 4.42 µM
BT-549 breast
  GI50: 2.99 µM
  TGI: 7.17 µM
MCF7 breast
  GI50: 1.86 µM
  TGI: 5.04 µM
HOP-62 NSCLC
  GI50: 2.06 µM
  TGI: 4.96 µM
ACHN renal
  GI50: 2.72 µM
  TGI: 9.66 µM
IGROV1 ovarian
  GI50: 3.24 µM
  TGI: 11.5 µM
LOX IMVI melanoma
  GI50: 2.63 µM
  TGI: 7.31 µM
HOP-92 NSCLC
  GI50: 3.41 µM
  TGI: 8.67 µM
SK-MEL-5 melanoma
  GI50: 1.85 µM
  TGI: 3.87 µM
SW-620 colon
  GI50: 2.97 µM
  TGI: 12.8 µM
U251 CNS
  GI50: 2.49 µM
  TGI: 10.8 µM
SNB-19 CNS
  GI50: 3.23 µM
  TGI: 12 µM
SF-539 CNS
  GI50: 1.56 µM
  TGI: 6.52 µM
T-47D breast
  GI50: 2.69 µM
  TGI: 12.2 µM
A498 renal
  GI50: 2.42 µM
  TGI: 7.41 µM
SK-MEL-28 melanoma
  GI50: 2.53 µM
  TGI: 10.3 µM
SF-295 CNS
  GI50: 1.54 µM
  TGI: 3.21 µM
OVCAR-8 ovarian
  GI50: 2.38 µM
  TGI: 6.87 µM
MALME-3M melanoma
  GI50: 2.1 µM
  TGI: 5.58 µM
KM12 colon
  GI50: 0.38 µM
  TGI: 9.59 µM
NCI-H460 lung
  GI50: 2.64 µM
  TGI: 9.49 µM
EKVX NSCLC
  GI50: 2.89 µM
  TGI: 10.2 µM
HS 578T breast
  GI50: 2.14 µM
  TGI: 6.46 µM
SK-OV-3 ovarian
  GI50: 2.84 µM
  TGI: 9.55 µM
SR leukemia
  GI50: 1.61 µM
  TGI: 3.71 µM
NCI/ADR-RES ovarian
  GI50: 5.19 µM
  TGI: 24.8 µM
A549 NSCLC
  GI50: 3 µM
  TGI: 10.8 µM
RPMI-8226 leukemia
  GI50: 1.9 µM
  TGI: 5.16 µM
HCT-116 colon
  GI50: 2.9 µM
  TGI: 9.97 µM
OVCAR-5 ovarian
  GI50: 3.03 µM
  TGI: 11.1 µM
NCI-H23 lung
  GI50: 2.42 µM
  TGI: 7.92 µM
MOLT-4 leukemia
  GI50: 1.72 µM
  TGI: 5.05 µM
OVCAR-4 ovarian
  GI50: 4.05 µM
  TGI: 21.1 µM
K-562 leukemia
  GI50: 1.95 µM
  TGI: 5.48 µM
NCI-H522 lung
  GI50: 2.33 µM
  TGI: 8.12 µM
TK-10 renal
  GI50: 3.83 µM
  TGI: 13.5 µM
OVCAR-3 ovarian
  GI50: 3.17 µM
  TGI: 10.6 µM
CCRF-CEM leukemia
  GI50: 2.72 µM
  TGI: 8.84 µM
M14 melanoma
  GI50: 2.38 µM
  TGI: 9.11 µM

Reference: PubChem BioAssay (NCI)
